# Results as given in patent US20250145606A1 (Arcus Biosciences, Inc., priority 2023, published 2025).
# Where two headings read alike, the source gives them in different places.
# Key:
# c-Kit = c-Kit (Homo sapiens (Human), UniProt P10721); assay: Inhibition of c-Kit kinase activity (HTRF KinEASE-TK); assay type: biochemical; details: biochemical, HTRF KinEASE-TK
# Method in brief: (§1)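 Recombinant kinases (2 nM CSF1R and c-Kit, 10 nM PDGFRα/β, 2× working) preincubated 1 h with compound in 50 mM HEPES pH 7.4, 5 mM MgCl2 (c-Kit) or 10 mM (others), 2 mM MnCl2; 2× ATP: c-Kit 16 μM, PDGFRα 1 μM, PDGFRβ 40 μM, CSF1R 20 μM. 120 min reaction at rt; TR-FRET 665/620 nm; IC50 by 4-parameter fit.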
# PDGFRα = PDGFRα (Homo sapiens (Human), UniProt P16234); assay: Inhibition of PDGFRα kinase activity (HTRF KinEASE-TK); details: biochemical, HTRF KinEASE-TK
# Method in brief: as §1
# PDGFRβ = PDGFRβ (Homo sapiens (Human), UniProt P09619); assay: Inhibition of PDGFRβ kinase activity (HTRF KinEASE-TK); details: biochemical, HTRF KinEASE-TK
# Method in brief: as §1
# CSF1R = CSF1R (Homo sapiens (Human), UniProt P07333); assay: Inhibition of CSF1R kinase activity (HTRF KinEASE-TK); details: biochemical, HTRF KinEASE-TK
# Method in brief: as §1
# [1] = system: Phospho-KIT (Y703) in M07e cells; assay: Phospho-KIT (Y703) cellular assay in M07e cells; assay type: cell-based; details: M-07e, M07e cells
# Method in brief: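 Serum-starved M07e cells preincubated 50 min at 37° C with 11-point half-log compound titration, then stimulated 10 min with SCF at 90.9 ng/mL final. Fixed, permeabilized cells stained for phospho-KIT Y703 and read by flow cytometry (live-gated geometric mean); IC50 by 4-parameter fit normalized to DMSO and positive control.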
# [2] = Phospho-KIT (Y703), read-out: M07e Cell IC50
# Sequence of PDGFRβ (P09619 33-1106): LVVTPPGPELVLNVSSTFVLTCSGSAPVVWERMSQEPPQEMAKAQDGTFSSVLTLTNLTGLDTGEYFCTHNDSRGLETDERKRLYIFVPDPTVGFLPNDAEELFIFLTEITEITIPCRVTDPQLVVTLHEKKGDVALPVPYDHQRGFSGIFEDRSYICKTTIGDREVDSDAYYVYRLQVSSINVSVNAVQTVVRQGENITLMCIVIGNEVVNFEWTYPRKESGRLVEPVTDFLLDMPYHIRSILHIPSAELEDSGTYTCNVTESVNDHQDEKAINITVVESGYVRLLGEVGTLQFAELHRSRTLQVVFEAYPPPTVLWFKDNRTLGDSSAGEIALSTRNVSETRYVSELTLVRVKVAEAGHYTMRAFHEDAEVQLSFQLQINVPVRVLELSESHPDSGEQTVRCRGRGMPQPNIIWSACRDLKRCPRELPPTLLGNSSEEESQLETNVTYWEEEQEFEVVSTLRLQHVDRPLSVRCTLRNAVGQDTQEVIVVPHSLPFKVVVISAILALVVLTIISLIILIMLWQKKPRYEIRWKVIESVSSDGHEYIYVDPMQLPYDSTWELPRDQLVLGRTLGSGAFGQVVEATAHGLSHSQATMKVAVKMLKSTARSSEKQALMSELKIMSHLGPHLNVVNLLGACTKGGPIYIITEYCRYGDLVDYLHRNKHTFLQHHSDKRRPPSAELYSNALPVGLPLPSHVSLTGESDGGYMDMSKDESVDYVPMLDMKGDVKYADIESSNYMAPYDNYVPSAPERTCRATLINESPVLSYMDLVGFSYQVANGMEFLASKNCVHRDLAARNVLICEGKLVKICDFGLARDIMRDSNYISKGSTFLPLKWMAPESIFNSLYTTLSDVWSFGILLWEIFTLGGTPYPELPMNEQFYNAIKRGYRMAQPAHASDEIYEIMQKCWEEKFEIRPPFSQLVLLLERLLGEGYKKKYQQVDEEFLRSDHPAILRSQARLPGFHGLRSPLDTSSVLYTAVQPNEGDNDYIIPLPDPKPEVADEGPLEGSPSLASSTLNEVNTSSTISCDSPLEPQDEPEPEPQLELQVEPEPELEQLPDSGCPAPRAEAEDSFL
# Sequence of CSF1R (P07333 20-972): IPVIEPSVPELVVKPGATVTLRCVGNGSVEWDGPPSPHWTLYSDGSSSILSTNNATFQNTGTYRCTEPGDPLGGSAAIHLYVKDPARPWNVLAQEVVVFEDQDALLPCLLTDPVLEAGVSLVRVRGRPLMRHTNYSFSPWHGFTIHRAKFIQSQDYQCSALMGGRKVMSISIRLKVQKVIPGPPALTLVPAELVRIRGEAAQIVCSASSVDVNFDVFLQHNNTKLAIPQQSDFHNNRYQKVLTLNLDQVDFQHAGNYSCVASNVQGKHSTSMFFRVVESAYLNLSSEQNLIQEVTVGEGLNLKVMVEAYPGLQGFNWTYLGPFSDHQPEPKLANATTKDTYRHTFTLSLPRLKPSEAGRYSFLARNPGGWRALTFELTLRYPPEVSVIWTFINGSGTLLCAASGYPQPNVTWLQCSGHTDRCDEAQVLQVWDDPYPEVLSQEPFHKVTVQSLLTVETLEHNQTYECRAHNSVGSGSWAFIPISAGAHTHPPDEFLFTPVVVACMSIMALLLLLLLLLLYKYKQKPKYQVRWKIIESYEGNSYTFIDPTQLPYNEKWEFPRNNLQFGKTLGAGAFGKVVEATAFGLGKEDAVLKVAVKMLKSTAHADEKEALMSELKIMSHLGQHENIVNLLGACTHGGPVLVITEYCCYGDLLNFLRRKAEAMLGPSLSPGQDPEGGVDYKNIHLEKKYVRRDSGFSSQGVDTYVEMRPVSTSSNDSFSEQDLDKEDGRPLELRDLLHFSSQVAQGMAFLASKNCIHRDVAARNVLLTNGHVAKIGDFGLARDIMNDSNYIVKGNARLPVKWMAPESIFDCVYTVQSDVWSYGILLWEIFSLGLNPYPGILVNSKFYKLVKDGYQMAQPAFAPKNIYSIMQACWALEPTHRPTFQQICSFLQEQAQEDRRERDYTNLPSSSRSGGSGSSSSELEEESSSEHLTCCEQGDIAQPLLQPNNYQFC
# Sequence of PDGFRα (P16234 24-1089): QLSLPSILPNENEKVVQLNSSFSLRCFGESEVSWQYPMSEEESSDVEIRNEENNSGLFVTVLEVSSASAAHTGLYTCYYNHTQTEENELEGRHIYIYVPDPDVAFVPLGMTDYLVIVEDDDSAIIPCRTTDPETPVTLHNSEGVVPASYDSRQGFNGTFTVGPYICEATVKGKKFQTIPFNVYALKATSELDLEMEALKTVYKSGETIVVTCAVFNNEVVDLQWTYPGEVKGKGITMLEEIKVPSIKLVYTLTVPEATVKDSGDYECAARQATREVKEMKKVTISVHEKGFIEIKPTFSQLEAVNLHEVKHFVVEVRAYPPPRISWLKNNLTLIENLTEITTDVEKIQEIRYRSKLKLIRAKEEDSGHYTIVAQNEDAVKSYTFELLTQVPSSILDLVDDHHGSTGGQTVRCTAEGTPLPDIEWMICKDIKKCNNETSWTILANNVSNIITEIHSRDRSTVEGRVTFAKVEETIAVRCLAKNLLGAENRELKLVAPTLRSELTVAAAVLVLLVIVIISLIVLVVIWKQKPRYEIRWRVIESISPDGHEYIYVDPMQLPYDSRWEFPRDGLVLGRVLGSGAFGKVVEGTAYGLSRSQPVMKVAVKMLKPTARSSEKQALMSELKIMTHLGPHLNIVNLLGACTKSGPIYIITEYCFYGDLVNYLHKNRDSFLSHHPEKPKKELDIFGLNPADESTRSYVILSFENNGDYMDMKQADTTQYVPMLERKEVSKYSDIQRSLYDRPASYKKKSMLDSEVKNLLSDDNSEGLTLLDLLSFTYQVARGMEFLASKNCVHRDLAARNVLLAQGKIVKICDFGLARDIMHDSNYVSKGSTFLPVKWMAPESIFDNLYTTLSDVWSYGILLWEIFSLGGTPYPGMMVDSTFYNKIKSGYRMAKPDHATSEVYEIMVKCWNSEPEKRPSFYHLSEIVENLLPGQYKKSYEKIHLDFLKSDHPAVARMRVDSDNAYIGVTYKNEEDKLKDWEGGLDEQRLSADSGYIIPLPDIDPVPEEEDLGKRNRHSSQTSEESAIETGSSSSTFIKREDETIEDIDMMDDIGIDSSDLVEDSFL
# Sequence of c-Kit (P10721 26-976): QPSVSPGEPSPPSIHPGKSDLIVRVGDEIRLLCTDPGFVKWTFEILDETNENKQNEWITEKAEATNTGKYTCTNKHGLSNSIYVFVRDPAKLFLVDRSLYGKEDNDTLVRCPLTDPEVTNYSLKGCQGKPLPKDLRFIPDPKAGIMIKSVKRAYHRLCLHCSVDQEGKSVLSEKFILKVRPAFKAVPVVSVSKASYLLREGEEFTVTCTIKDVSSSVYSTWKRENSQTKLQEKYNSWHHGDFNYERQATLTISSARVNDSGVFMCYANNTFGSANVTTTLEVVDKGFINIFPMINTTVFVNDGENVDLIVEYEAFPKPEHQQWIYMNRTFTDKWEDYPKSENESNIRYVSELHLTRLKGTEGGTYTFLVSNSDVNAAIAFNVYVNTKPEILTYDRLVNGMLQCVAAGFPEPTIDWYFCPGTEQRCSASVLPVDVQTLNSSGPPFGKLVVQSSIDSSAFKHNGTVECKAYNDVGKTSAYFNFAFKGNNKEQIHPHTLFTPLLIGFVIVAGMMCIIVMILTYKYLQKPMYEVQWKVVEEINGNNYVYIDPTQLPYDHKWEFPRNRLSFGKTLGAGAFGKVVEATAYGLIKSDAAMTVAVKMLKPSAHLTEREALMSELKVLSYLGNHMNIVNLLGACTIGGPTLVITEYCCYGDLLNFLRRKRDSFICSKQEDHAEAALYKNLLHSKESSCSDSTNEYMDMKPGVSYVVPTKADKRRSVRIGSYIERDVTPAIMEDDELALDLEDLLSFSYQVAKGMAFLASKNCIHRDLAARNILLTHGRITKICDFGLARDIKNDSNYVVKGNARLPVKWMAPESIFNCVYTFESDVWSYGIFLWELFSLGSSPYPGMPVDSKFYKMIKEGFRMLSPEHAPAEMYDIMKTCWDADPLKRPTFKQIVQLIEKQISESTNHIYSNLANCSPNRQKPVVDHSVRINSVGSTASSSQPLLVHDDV
Structure (SMILES),IC50 (c-Kit),IC50 (PDGFRα),IC50 (PDGFRβ),IC50 (CSF1R),"IC50 [1, 2]",IC50 ([1]; read-out: Phospho-KIT (Y703) cellular IC50)
"Cc1cc(F)c(C(=O)Nc2ccc(O[C@@H]3CCOC3)cn2)cc1NC(=O)c1cnc(N)s1 [Example 198, 2-Amino-N-[4-fluoro-2-methyl-5-[[5-[(3R)-oxolan-3-yl]oxypyridin-2-yl]carbamoyl]phenyl]-1,3-thiazole-5-carboxamide]",< 100 nM,> 1000 nM,100 to 1000 nM,> 1000 nM,< 100 nM,
"Cc1ncc(C(=O)Nc2cc(C(=O)Nc3cnc(N4CC[C@@H](F)C4)cn3)c(F)cc2C)s1 [Example 94, N-[4-fluoro-5-[[5-[(3R)-3-fluoropyrrolidin-1-yl]pyrazin-2-yl]carbamoyl]-2-methylphenyl]-2-methyl-1,3-thiazole-5-carboxamide]",< 100 nM,> 1000 nM,> 1000 nM,> 1000 nM,< 100 nM,
"Cc1ncc(C(=O)Nc2cc(C(=O)Nc3ccn(CC4CC4)n3)c(F)cc2C)s1 [Example 70, N-[5-[[1-(cyclopropylmethyl)pyrazol-3-yl]carbamoyl]-4-fluoro-2-methylphenyl]-2-methyl-1,3-thiazole-5-carboxamide]",< 100 nM,> 1000 nM,> 1000 nM,> 1000 nM,< 100 nM,
"Cc1ncc(C(=O)Nc2cc(C(=O)Nc3ccc(OC4CC4)cn3)c(F)cc2Cl)s1 [Example 49, N-[2-chloro-5-[(5-cyclopropyloxypyridin-2-yl)carbamoyl]-4-fluorophenyl]-2-methyl-1,3-thiazole-5-carboxamide]",< 100 nM,> 1000 nM,> 1000 nM,> 1000 nM,< 100 nM,
"Cc1ncc(C(=O)Nc2cc(C(=O)Nc3cc(CC4CC4)ncn3)c(F)cc2C)s1 [Example 50, N-(5-((6-(cyclopropylmethyl)pyrimidin-4-yl)carbamoyl)-4-fluoro-2-methylphenyl)-2-methylthiazole-5-carboxamide]",< 100 nM,100 to 1000 nM,100 to 1000 nM,100 to 1000 nM,< 100 nM,
"Cc1ncc(C(=O)Nc2cc(C(=O)Nc3ccc(OC(C)C)cn3)c(F)cc2Cl)s1 [Example 48, N-[2-chloro-4-fluoro-5-[(5-propan-2-yloxypyridin-2-yl)carbamoyl]phenyl]-2-methyl-1,3-thiazole-5-carboxamide]",< 100 nM,> 1000 nM,> 1000 nM,> 1000 nM,< 100 nM,
"Cc1ncc(C(=O)Nc2cc(C(=O)Nc3cnc(OCC4CC4)cn3)c(F)cc2C)s1 [Example 88, N-{5-[N-5-(cyclopropylmethoxy)-2-pyrazinylcarbamoyl]-4-fluoro-2-tolyl}-2-methyl-1,3-thiazole-5-carboxamide]",100 to 1000 nM,> 1000 nM,> 1000 nM,> 1000 nM,100 to 1000 nM,
"Cc1ncc(C(=O)Nc2cc(C(=O)NCc3ccc(OC(F)(F)F)cc3)c(F)cc2C)s1 [Example 267, N-[4-fluoro-2-methyl-5-[[4-(trifluoromethoxy)phenyl]methylcarbamoyl]phenyl]-2-methyl-1,3-thiazole-5-carboxamide]",100 to 1000 nM,> 1000 nM,> 1000 nM,> 1000 nM,,< 100 nM
"COC[C@@H]1CCCN1c1cnc(NC(=O)c2cc(NC(=O)c3cnc(C)s3)c(C)cc2F)cn1 [Example 97, N-[4-fluoro-5-[[5-[(2S)-2-(methoxymethyl)pyrrolidin-1-yl]pyrazin-2-yl]carbamoyl]-2-methylphenyl]-2-methyl-1,3-thiazole-5-carboxamide]",< 100 nM,> 1000 nM,> 1000 nM,> 1000 nM,100 to 1000 nM,
"Cc1ncc(C(=O)Nc2cc(C(=O)Nc3cnc(OC[C@@H]4CC4(F)F)cn3)c(F)cc2C)s1 [Example 58, N-[5-[[5-[[(1S)-2,2-difluorocyclopropyl]methoxy]pyrazin-2-yl]carbamoyl]-4-fluoro-2-methylphenyl]-2-methyl-1,3-thiazole-5-carboxamide]",< 100 nM,> 1000 nM,> 1000 nM,> 1000 nM,< 100 nM,
"Cc1ncc(C(=O)Nc2cc(C(=O)Nc3cnc(N4CC[C@H](F)C4)cn3)c(F)cc2C)s1 [Example 93, N-[4-fluoro-5-[[5-[(3S)-3-fluoropyrrolidin-1-yl]pyrazin-2-yl]carbamoyl]-2-methylphenyl]-2-methyl-1,3-thiazole-5-carboxamide]",< 100 nM,> 1000 nM,> 1000 nM,> 1000 nM,< 100 nM,
"Cc1ncc(C(=O)Nc2cc(C(=O)Nc3ccc(OC(F)(F)F)cn3)c(F)cc2C)s1 [Example 39, N-[4-fluoro-2-methyl-5-[[5-(trifluoromethoxy)pyridin-2-yl]carbamoyl]phenyl]-2-methyl-1,3-thiazole-5-carboxamide]",< 100 nM,> 1000 nM,> 1000 nM,> 1000 nM,< 100 nM,
"Cc1ncc(C(=O)Nc2cc(C(=O)Nc3cnc(N4CCCC4)cn3)c(F)cc2C)s1 [Example 85, N-{5-[N-5-(1-pyrrolidinyl)-2-pyrazinylcarbamoyl]-4-fluoro-2-tolyl}-2-methyl-1,3-thiazole-5-carboxamide]",< 100 nM,> 1000 nM,> 1000 nM,> 1000 nM,< 100 nM,
"Cc1ncc(C(=O)Nc2cc(C(=O)Nc3cnc(N4CCC[C@H]4C(F)(F)F)cn3)c(F)cc2C)s1 [Example 95, N-[4-fluoro-2-methyl-5-[[5-[(2S)-2-(trifluoromethyl)pyrrolidin-1-yl]pyrazin-2-yl]carbamoyl]phenyl]-2-methyl-1,3-thiazole-5-carboxamide]",< 100 nM,> 1000 nM,> 1000 nM,> 1000 nM,< 100 nM,
"Cc1ncc(C(=O)Nc2cc(C(=O)N[C@@H]3C[C@@H]3c3ccccc3Cl)c(F)cc2C)s1 [Example 101, N-[5-[[(1R,2R)-2-(2-chlorophenyl)cyclopropyl]carbamoyl]-4-fluoro-2-methylphenyl]-2-methyl-1,3-thiazole-5-carboxamide]",< 100 nM,< 100 nM,100 to 1000 nM,100 to 1000 nM,< 100 nM,
"Cc1ncc(C(=O)Nc2cc(C(=O)NCc3ccccc3F)c(F)cc2C)s1 [Example 51, N-(4-fluoro-5-((2-fluorobenzyl)carbamoyl)-2-methylphenyl)-2-methylthiazole-5-carboxamide]",100 to 1000 nM,> 1000 nM,> 1000 nM,> 1000 nM,< 100 nM,
"CC(C)Oc1ccc(NC(=O)c2cc(NC(=O)c3cnc(N)s3)c(Cl)cc2F)nc1 [Example 207, 2-Amino-N-[2-chloro-4-fluoro-5-[(5-propan-2-yloxypyridin-2-yl)carbamoyl]phenyl]-1,3-thiazole-5-carboxamide]",< 100 nM,> 1000 nM,> 1000 nM,100 to 1000 nM,< 100 nM,
